In EP0297815B1, “Fluorine containing renin inhibitors” (PFIZER INC., priority 1987, dated 1989):

Molecular target: T1, renin (Homo sapiens, UniProt P00797)
T1 sequence (P00797 67-406): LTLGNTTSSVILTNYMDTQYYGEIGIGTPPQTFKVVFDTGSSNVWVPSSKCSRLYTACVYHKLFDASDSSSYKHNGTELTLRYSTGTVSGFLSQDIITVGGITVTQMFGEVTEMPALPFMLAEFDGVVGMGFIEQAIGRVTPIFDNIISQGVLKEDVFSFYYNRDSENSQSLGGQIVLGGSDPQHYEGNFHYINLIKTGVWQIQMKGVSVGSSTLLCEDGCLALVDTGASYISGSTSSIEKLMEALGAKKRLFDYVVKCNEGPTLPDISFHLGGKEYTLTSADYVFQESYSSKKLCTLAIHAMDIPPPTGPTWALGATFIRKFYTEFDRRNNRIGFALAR
Assay: renin inhibitory potency
Assay type: biochemical
Conditions: compared with the more retained 2R,5R isomer separated by HPLC
Text: The activity of the compounds of the present invention as inhibitors of the angiotensinogen-cleaving activity of renin may be determined by studying (1) their ability to inhibit the angiotensinogen-cleaving activity of renin in vitro and (2) their ability to antagonize the exogenous renin-induced pressor response in vivo.

renin inhibitory potency: more active
Structure (SMILES): CCCC[C@H](NC(=O)[C@H](Cc1ccccc1)NC(=O)N1CCOCC1)C(=O)N[C@@H](CC1CCCCC1)C(=O)C(F)(F)[C@@H](CC(C)C)C(=O)OCC [2S,5S product, ethyl (2S,5S)-2-isobutyl-3,3-difluoro-4-keto-5-N-(N-[morpholinocarbonyl-L-phenylalanyl]-L-norleucyl)-amino-6-cyclohexylhexanoate]
